Experimental data taken from patent US20190233906A1, “MUTANT STRAINS OF STAPHYLOCOCCUS AUREUS WITH MULTIPLE INACTIVATED TCS SYSTEMS” (priority 2015, published 2019).
Marks after values point to notes of the source that are not given here.

Experiments:
Type in all cases: cell-based, Staphylococcus aureus
S. aureus 8325 ΔXV = assay: Antimicrobial susceptibility test (VITEK 2 system); conditions: for Susceptibility of 8325 ΔXV mutant compared with parental strain: 8325 ΔXV vs 8325; for Antimicrobial susceptibility (R/S) / MIC, Minimal inhibitory concentration: strain 8325 ΔXV; on Antimicrobial susceptibility (R/S): key: R: resistant; S: susceptible
Description: (§1) Antibiotic sensitivity tests were performed at the University Clinic of Navarra. Antibiotics routinely used in clinic for treatment of S. aureus infections were tested by VITEK 2 system. • Growth Kinetics Analysis

S. aureus MW2 ΔXV = assay: Antimicrobial susceptibility test (VITEK 2 system); on Antimicrobial susceptibility (R/S): key: R: resistant; S: susceptible
Description: as §1

S. aureus MW2 = conditions: strain MW2
Description: as §1

S. aureus 8325 = conditions: strain 8325
Description: as §1
Wherever Antimicrobial susceptibility (R/S) is given: key: R: resistant; S: susceptible.

| SMILES | Susceptibility of 8325 ΔXV mutant compared with parental strain (S. aureus 8325 ΔXV) | Antimicrobial susceptibility (R/S) (S. aureus 8325 ΔXV) | Antimicrobial susceptibility (R/S) (S. aureus MW2 ΔXV; strain MW2 ΔXV) | Antimicrobial susceptibility (R/S) (S. aureus MW2) | Antimicrobial susceptibility (R/S) (S. aureus 8325) | MIC, Minimal inhibitory concentration (S. aureus 8325 ΔXV) | MIC, Minimal inhibitory concentration (S. aureus 8325) | Susceptibility of MW2 ΔXV mutant compared with parental strain (S. aureus MW2 ΔXV; MW2 ΔXV vs MW2) | MIC, Minimal inhibitory concentration (S. aureus MW2 ΔXV; strain MW2 ΔXV) | MIC, Minimal inhibitory concentration (S. aureus MW2) |
| --- | --- | --- | --- | --- | --- | --- | --- | --- | --- | --- |
| CC1(C)S[C@@H]2[C@H](NC(=O)[C@H](N)c3ccccc3)C(=O)N2[C@H]1C(=O)O [Ampicillin] | higher susceptibility | S | R | R | R | – | – | – | – | – |
| CC[C@H]1OC(=O)[C@H](C)[C@@H](O[C@H]2C[C@@](C)(OC)[C@@H](O)[C@H](C)O2)[C@H](C)[C@@H](O[C@@H]2O[C@H](C)C[C@H](N(C)C)[C@H]2O)[C@](C)(O)C[C@@H](C)CN(C)[C@H](C)[C@@H](O)[C@]1(C)O [Azithromycin] | – | S | S | S | S | – | – | – | – | – |
| CC1(C)S[C@@H]2[C@H](NC(=O)Cc3ccccc3)C(=O)N2[C@H]1C(=O)O [Bencilpenicillin] | higher susceptibility | S | R | R | R | (0.12) | (0.25) | – | – | – |
| CC(=O)OCC1=C(C(=O)O)N2C(=O)[C@@H](NC(=O)Cc3cccs3)[C@H]2SC1 [Cefalotin] | – | S | R | R | S | – | – | – | – | – |
| CO[C@@]1(NC(=O)Cc2cccs2)C(=O)N2C(C(=O)O)=C(COC(N)=O)CS[C@@H]21 [Cefoxitin] | – | S | S | R | S | – | – | more susceptible | – | – |
| CO/N=C(\C(=O)N[C@@H]1C(=O)N2C(C(=O)O)=C(COC(N)=O)CS[C@H]12)c1ccco1 [Cefuroxime] | – | S | R | R | S | – | – | – | – | – |
| O=C(N[C@H](CO)[C@H](O)c1ccc([N+](=O)[O-])cc1)C(Cl)Cl [Chloramphenicol] | – | S | S | S | S | – | – | – | – | – |
| CC[C@H]1OC(=O)[C@H](C)[C@@H](O[C@H]2C[C@@](C)(OC)[C@@H](O)[C@H](C)O2)[C@H](C)[C@@H](O[C@@H]2O[C@H](C)C[C@H](N(C)C)[C@H]2O)[C@](C)(OC)C[C@@H](C)C(=O)[C@H](C)[C@@H](O)[C@]1(C)O [Clarithromycin] | – | S | S | S | S | – | – | – | – | – |
| CCC[C@@H]1C[C@@H](C(=O)N[C@@H]([C@H]2O[C@H](SC)[C@H](O)[C@@H](O)[C@H]2O)[C@H](C)Cl)N(C)C1 [Clindamycin] | – | S | S | S | S | – | – | – | – | – |
| Cc1onc(-c2ccccc2Cl)c1C(=O)N[C@@H]1C(=O)N2[C@@H]1SC(C)(C)[C@@H]2C(=O)O [Cloxacillin] | – | S | R | R | S | – | – | – | – | – |
| CC[C@H]1OC(=O)[C@H](C)[C@@H](O[C@H]2C[C@@](C)(OC)[C@@H](O)[C@H](C)O2)[C@H](C)[C@@H](O[C@@H]2O[C@H](C)C[C@H](N(C)C)[C@H]2O)[C@](C)(O)C[C@@H](C)C(=O)[C@H](C)[C@@H](O)[C@]1(C)O [Erithromycin] | – | S | S | S | S | – | – | – | – | – |
| C[C@@H]1O[C@@H]1P(=O)(O)O [Fosfomycin] | higher susceptibility | S | S | S | S | (≤8)^a | (16)^a | – | – | – |
| CC(=O)O[C@H]1C[C@@]2(C)[C@@H](C[C@@H](O)[C@H]3[C@@]4(C)CC[C@@H](O)[C@@H](C)[C@@H]4CC[C@@]32C)/C1=C(\CCC=C(C)C)C(=O)O [Fusidic acid] | – | S | S | S | S | – | – | – | – | – |
| C[C@H]1COc2c(N3CCN(C)CC3)c(F)cc3c(=O)c(C(=O)O)cn1c23 [Levofloxacin] | – | S | S | S | S | – | – | – | (≤0.12)^a | (≤0.25)^a |
